Patent US5808109A, “Compounds that inhibit complement and/or suppress immune activity” (T Cell Sciences, Inc., priority 1995, dated 1998)
pIC50: −log10 of the molar value. Where two headings read alike, the source gives them in different places.

How the values were obtained:
[1] = Viability of effector cells by trypan blue exclusion; format: cell-based; details: human, peripheral blood mononuclear cells
Protocol: where EXP (experimental value) was obtained using effector and target cells; SR (the spontaneous release) was obtained from target cells incubated with media alone; TOTAL release was obtained by hypotonic lysis in water; and B represents instrumental background. Means were calculated from quadruplicate wells and the standard deviations never exceeded 10%. Viability of the effector cells incubated with the test compound was determined by trypan blue exclusion.

[2] = system: cell surface IL-2R expression; experiment: Inhibition of cell surface IL-2R expression, PHA-stimulated PBL, flow cytometry; format: cell-based; details: PHA 72 h, total cell count 5000
Protocol: Compounds were tested for their ability to inhibit T cell activation, as indicated by inhibition of cell-surface IL-2R expression. PBL cultures (1.5 ml; 24-well plates) were stimulated with PHA (1 μg/ml) for 72 hours in the absence or presence of varying amounts of compound 11a. Subsequently, the cells were stained using fluorescein isothiocyanate (FITC)-labeled anti-IL-2R antibody (Act-T-Set IL-2R, Cat. No. AA2009, T Cell Sciences, Inc., Cambridge, Mass.) and analyzed by flow cytometry (Ortho System 30) (Table X).

[3] = system: Chinese hamster ovary (CHO) cells; experiment: CHO cell proliferation, 3H-thymidine incorporation; format: cell-based
Protocol: Non-confluent CHO cells were allowed to proliferate for 4 hours in a 96-well plate at a volume of 50 μl per well in the absence or presence of compound 11a at a concentration of 1.8 mM. The cells were pulsed with 0.5 μCi of ^3 H-thymidine per sample for 4 hours, harvested, and the amount of incorporated ^3 H-thymidine was determined by scintillation counting. The CHO cells allowed to proliferate in the absence of added compound yielded a value of 57025 (±7530) CPM. The value for the sample grown in the presence of 11a was 52549 (±6272) CPM.

[4] = system: interleukin-2 receptor (IL-2R) release; experiment: IL-2R release into supernatant of stimulated PBL cultures (enzyme immunoassay); format: cell-based, human; details: stimulated PBL cultures (FIG. 6)
Protocol: Release of cell surface interleukin-2 receptor (IL-2R) or CD8 antigen from lymphocytes is a correlate of T cell activation (Rubin et al. J. Immunol. 1985, 135, 3172-77; Rubin et al. Fed. proc. 1985 44, 946; Fujimoto, J. et al. J. Exp. Med. 1983, 159, 752-66; Tomkinson, B. et al. 2d Annual Conference on Clinical Immunol. Washington, D.C., Oct. 30, 1987). In some experiments, the level of IL-2R or CD8 protein released into the supernatant of the PBL cultures was assessed by removing aliquots therefrom just prior to pulsing with ^3 H-thymidine. Commercially available enzyme immunoassay kits (CELLFREE™ IL-2R, Cat. No. CK1020, T Cell Sciences, Inc., Cambridge, Mass., or CELL-FREE™ T8/CD8, Cat. No. CK1040, T Cell Sciences) were used to determine the levels of the two analytes.

[5] = system: human peripheral blood lymphocytes (PBL); experiment: Inhibition of proliferation of peripheral blood lymphocytes, 3H-thymidine incorporation; format: cell-based; details: Lymphocyte
Protocol: The proliferation of human peripheral blood lymphocytes (PBL) in response to phytohemagglutinin (PHA, Well-come) or anti-CD3 monoclonal antibody (OKT-3, Ortho) was assessed by the incorporation of ^3 H-thymidine. Compound 11a was diluted in culture media to the desired concentrations, human PBL were added to a final concentration of 10^6 cells/ml, and then either PHA (Wellcome) or anti-CD3 (OKT3, Ortho) antibody (final concentration, […]) was added to initiate proliferation. The final volume per sample was 100 μl. The cells were incubated for 72 hours after stimulation, pulsed with 1 μCi ^3 H-thymidine per sample for 4 hours, harvested, and counted in a scintillation counter. […] Because cell viability was unaffected by the presence of 11a (see supra), the inhibition apparently was not due to cytotoxic effects.

C3a production = experiment: Inhibition of C3a production in human serum (aggregated IgG, RIA); format: biochemical; details: human serum, concentration inhibiting C3a production 50% relative to control
Protocol: The ability to inhibit complement was tested by assaying for specific inhibition of C3a and C5a production. For all experiments, a single human serum pool, to be used as a source of complement, was aliquoted and stored frozen at -70° C. Human IgG was heat-aggregated, aliquoted, and stored frozen at -70° C. For each experiment, serum aliquots were equilibrated at 37° C. with varying concentrations of the compounds tested. The classical complement pathway was initiated by the addition of aggregated human IgG. Control samples containing no IgG were always included. After a fixed reaction time of 10 minutes (determined in an earlier time-course study to provide a convenient time interval during which the production of C5a or C3a is nearly complete, i.e., greater than 90%), the levels of the released complement peptides (C5a or C3a) were determined by radioimmunoassay using commercially available radioimmunoassay (RIA) kits (C5a RIA, UpJohn Cat. No. 3250-02; C3a RIA, UpJohn Cat. No. 3245-01; C5a RIA, Amersham Cat. No. RPA.520; C3a RIA, Amersham RPA.518).
Since a competitive immunoassay was used, complement peptide (C5a and C3a) concentrations varied inversely with the counts. The Counts Bound (CB) for a sample was defined as the total counts (in counts per minute, cpm) measured in the pellet minus the counts measured in a nonspecific binding (NSB) control. The NSB control was a sample containing only tracer peptide (^125 I-labelled) and second precipitating antiserum; it contained no C5a- or C3a-specific antiserum.
The y-axis in FIG. 2 represents the fraction inhibition. The fraction inhibition is equal to the Counts Bound (CB) for a "sample," less the CB in the "sample with no added compound," divided by the CB for the "no IgG control" less the CB in the "sample with no added compound." [formula]
FIG. 2 is representative of the data plots obtained from the assays described above.

[6] = system: human peripheral blood lymphocytes (PBL); experiment: Inhibition of proliferation of peripheral blood lymphocytes, 3H-thymidine incorporation; format: cell-based; details: without stimulant, concentration ranges used in the proliferation assay

COc1ccc(C(=O)O)c2c1CC1(CCCCC1)O2 [Compound 11a, 7-carboxy-4-methoxyspiro[benzofuran-2(3H)-cyclohexane]]
viability at 400 µM ([1]; 0.4 mM): 95%
viability at 800 µM ([1]; 0.8 mM): 95%
viability at 1600 µM ([1]; 1.6 mM): 95%
viability at 3200 µM ([1]; 3.2 mM): 76%
viability at 6400 µM ([1]; 6.4 mM): 5%
Number of Cells Positive for IL-2R ([2]; 0.44 nM (so in the source)): 913
Percentage Positive ([2]; 0.44 nM (so in the source)): 18.3
Number of Cells Positive for IL-2R ([2]; 1.76 nM (so in the source)): 225
Percentage Positive ([2]; 1.76 nM (so in the source)): 4.5
inhibition of CHO cell proliferation [3]: no inhibition
incorporated 3H-thymidine ([3]; 1.8 mM, CHO cells): 52549 (±6272) CPM
IL-2R protein release [4]: inhibitor
pIC50 ([5]; PHA stimulated (FIG. 4), read-out: Half-maximal inhibition of PBL proliferation): ~3.30
pIC50 ([5]; Table IX, PHA stimulation, 72 h, read-out: IP50 PHA-stimulated PBL): 3.40
pIC50 ([5]; Table IX, anti-CD3 (OKT-3) stimulation, 72 h, read-out: IP50 OKT-3-stimulated PBL): 3.30
pIC50 (C3a production): 1.66
PBL viability by trypan blue exclusion [6]: viable
